Results from ChEMBL document CHEMBL1158450, “A small-molecule inhibitor of Nipah virus envelope protein-mediated membrane fusion” (J Med Chem, 2009).
The source made the active and inactive calls. No cut-off for these calls is given here.

Experiments:
[1] = target: T1, Glycoprotein G (Henipavirus nipahense) (UniProt Q9IH62); type: cell-based; details: Vero, 10 to 200 uM
T1 sequence (whole entry): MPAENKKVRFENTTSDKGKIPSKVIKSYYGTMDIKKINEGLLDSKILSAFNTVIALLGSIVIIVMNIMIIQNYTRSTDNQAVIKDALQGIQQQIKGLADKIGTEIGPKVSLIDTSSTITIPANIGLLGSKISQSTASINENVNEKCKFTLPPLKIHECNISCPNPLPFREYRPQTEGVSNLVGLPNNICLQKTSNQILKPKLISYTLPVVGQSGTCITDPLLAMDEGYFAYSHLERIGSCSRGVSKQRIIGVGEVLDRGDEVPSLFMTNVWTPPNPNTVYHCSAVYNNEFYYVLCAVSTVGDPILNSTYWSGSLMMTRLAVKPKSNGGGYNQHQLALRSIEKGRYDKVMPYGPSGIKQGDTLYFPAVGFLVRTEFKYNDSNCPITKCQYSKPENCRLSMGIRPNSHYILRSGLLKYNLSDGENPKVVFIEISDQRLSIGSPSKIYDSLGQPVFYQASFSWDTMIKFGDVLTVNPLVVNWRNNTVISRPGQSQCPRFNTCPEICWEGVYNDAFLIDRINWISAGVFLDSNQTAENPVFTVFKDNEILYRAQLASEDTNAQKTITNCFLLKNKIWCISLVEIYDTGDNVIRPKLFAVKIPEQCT

[2] = test system: Vero; type: cell-based; details: Measles morbillivirus, 10 to 200 uM
[3] = test system: Vero; assay: Cytotoxicity against african green monkey Vero cells at 10 to 200 uM after 16 hrs by MTT assay; type: cell-based; details: chlorocebus sabaeus
[4] = (§1) Cytotoxicity against african green monkey Vero cells after 16 hrs by MTT assay; type: cell-based, Chlorocebus sabaeus; details: chlorocebus sabaeus, Vero cells
[5] = target: T2, Glycoprotein G (Henipavirus nipahense, UniProt Q9IH62); type: cell-based; details: vero
T2 sequence (Q9IH62 whole entry): T1 sequence (whole entry)

[6] = Selectivity index, CC50 for african green monkey Vero cells to EC50 for Measles virus hemagglutininin/F-mediated cell-cell fusion; type: toxicity, cell-based; details: read-out: Ratio CC50/EC50
[7] = test system: Nipah virus; assay: Inhibition of Nipah virus-mediated cell fusion infected in african green monkey Vero cells assessed as reduction in virus-induced syncytium formation after 24 hrs relative to control; type: functional, organism-based; details: Henipavirus nipahense
[8] = test system: Vero; assay: as §1; type: cell-based, Chlorocebus sabaeus; details: Chlorocebus sabaeus, Vero, 16 h

With `CCn1cc(C(=O)Nc2ccccc2CO)c(=O)c2ccc(C(F)(F)F)cc21` the Activity [1] was “inactive”, the Activity [2] was “inactive” and the Activity [3] was “Not Active”.

With `CCOC(=O)N1CCN(c2cc3c(cc2F)c(=O)c(C(=O)NCc2ccc(Cl)cc2Cl)cn3CC)CC1` the CC50 at 16 h [4] was > 20 µM.

In the case of `CCn1cc(C(=O)Nc2ccc(F)c(Cl)c2)c(=O)c2ccc(C(F)(F)F)cc21`, the EC50 [5] is reported as “Not Active” and the CC50 at 16 h [4] is reported as > 20 µM.

In the case of `CCn1cc(C(=O)NCc2ccc(Cl)cc2)c(=O)c2ccc(C(F)(F)F)cc21`, the CC50 at 16 h [4] is reported as > 20 µM and the selectivity ratio [6] is reported as > 10.

In the case of `CCn1cc(C(=O)NCc2ccc(N)cc2)c(=O)c2cc(F)ccc21`, the Activity [1] is reported as “inactive”, the Activity [2] is reported as “inactive” and the Activity [3] is reported as “Not Active”.

In the case of `CCn1cc(C(=O)NCc2ccc(OC)cc2)c(=O)c2cc(F)c(Cl)cc21`, the Activity [1] is reported as “inactive”, the Activity [2] is reported as “inactive” and the Activity [3] is reported as “Not Active”.

With `CCn1cc(C(=O)NCC2CC2)c(=O)c2cc(F)ccc21` the Activity [1] was “inactive”, the Activity [2] was “inactive” and the Activity [3] was “Not Active”.

With `CCn1cc(C(=O)NCc2ccccn2)c(=O)c2cc(C(F)(F)F)ccc21` the Activity [1] was “inactive”, the Activity [2] was “inactive” and the Activity [3] was “Not Active”.

For `CCn1cc(C(=O)NCC2CC2)c(=O)c2cc(C(F)(F)F)ccc21`, the Activity [1] was “inactive”, the Activity [2] was “inactive” and the Activity [3] was “Not Active”.

For `CCOC(=O)C1CCN(c2cc3c(cc2F)c(=O)c(C(=O)O)cn3CC)CC1`, the Activity [1] was “inactive”, the Activity [2] was “inactive” and the Activity [3] was “Not Active”.

In the case of `CCn1cc(C(=O)NCc2ccccn2)c(=O)c2cc(F)ccc21`, the Activity [1] is reported as “inactive”, the Activity [2] is reported as “inactive” and the Activity [3] is reported as “Not Active”.

In the case of `CCOC(=O)C1CCN(c2cc3c(cc2F)c(=O)c(C(=O)NCc2ccc(Cl)cc2Cl)cn3CC)CC1`, the CC50 at 16 h [4] is reported as 10 µM and the Activity [7] is reported as “Dose-dependent effect”.

For `CCn1cc(C(=O)NCc2ccc(OC)cc2)c(=O)c2cc(C(F)(F)F)ccc21`, the Activity [1] was “inactive”, the Activity [2] was “inactive” and the Activity [3] was “Not Active”.

With `NC(=O)C1CCN(c2cc3c(cc2F)c(=O)c(C(=O)O)cn3C2CC2)CC1` the Activity [1] was “inactive”, the Activity [2] was “inactive” and the Activity [3] was “Not Active”.

For `NC(=O)C1CCN(c2cc3c(cc2F)c(=O)c(C(=O)NCc2ccc(Cl)cc2Cl)cn3C2CC2)CC1`, the CC50 at 16 h [4] was > 20 µM and the Activity [7] was “Dose-dependent effect”.

Molecule `CCOC(=O)N1CCN(c2cc3c(cc2F)c(=O)c(C(=O)NCc2ccc(Cl)cc2Cl)cn3C2CC2)CC1` has a CC50 at 16 h [4] of 15 µM.

With `C=CCN1[C@@H](c2ccc([N+](=O)[O-])cc2)C(C(=O)OCC)=C(O)C(C(=O)OCC)[C@@H]1c1ccc([N+](=O)[O-])cc1` (some centres not stated) the CC50 at 16 h [4] was > 20 µM.

With `CCn1cc(C(=O)NCc2ccc(N)cc2)c(=O)c2cc(C(F)(F)F)ccc21` the Activity [1] was “inactive”, the Activity [2] was “inactive” and the Activity [3] was “Not Active”.

For `Nc1ccc2oc(Cc3ccccc3)nc2c1`, the EC50 [8] was 8 µM, the selectivity ratio [6] was 20 and the Activity [7] was “Dose-dependent effect”.
